Assay results from patent EP2727911B1, “Novel means and methods for treating malaria and other parasitic disorders” (Medizinische Hochschule Hannover, priority 2012, dated 2014).
Structures can show the parent of a compound that is named as a salt.

Biological target: T1, Dd myosin-1b (Dictyostelium discoideum, UniProt P34092)
T1 sequence (P34092 1-1111): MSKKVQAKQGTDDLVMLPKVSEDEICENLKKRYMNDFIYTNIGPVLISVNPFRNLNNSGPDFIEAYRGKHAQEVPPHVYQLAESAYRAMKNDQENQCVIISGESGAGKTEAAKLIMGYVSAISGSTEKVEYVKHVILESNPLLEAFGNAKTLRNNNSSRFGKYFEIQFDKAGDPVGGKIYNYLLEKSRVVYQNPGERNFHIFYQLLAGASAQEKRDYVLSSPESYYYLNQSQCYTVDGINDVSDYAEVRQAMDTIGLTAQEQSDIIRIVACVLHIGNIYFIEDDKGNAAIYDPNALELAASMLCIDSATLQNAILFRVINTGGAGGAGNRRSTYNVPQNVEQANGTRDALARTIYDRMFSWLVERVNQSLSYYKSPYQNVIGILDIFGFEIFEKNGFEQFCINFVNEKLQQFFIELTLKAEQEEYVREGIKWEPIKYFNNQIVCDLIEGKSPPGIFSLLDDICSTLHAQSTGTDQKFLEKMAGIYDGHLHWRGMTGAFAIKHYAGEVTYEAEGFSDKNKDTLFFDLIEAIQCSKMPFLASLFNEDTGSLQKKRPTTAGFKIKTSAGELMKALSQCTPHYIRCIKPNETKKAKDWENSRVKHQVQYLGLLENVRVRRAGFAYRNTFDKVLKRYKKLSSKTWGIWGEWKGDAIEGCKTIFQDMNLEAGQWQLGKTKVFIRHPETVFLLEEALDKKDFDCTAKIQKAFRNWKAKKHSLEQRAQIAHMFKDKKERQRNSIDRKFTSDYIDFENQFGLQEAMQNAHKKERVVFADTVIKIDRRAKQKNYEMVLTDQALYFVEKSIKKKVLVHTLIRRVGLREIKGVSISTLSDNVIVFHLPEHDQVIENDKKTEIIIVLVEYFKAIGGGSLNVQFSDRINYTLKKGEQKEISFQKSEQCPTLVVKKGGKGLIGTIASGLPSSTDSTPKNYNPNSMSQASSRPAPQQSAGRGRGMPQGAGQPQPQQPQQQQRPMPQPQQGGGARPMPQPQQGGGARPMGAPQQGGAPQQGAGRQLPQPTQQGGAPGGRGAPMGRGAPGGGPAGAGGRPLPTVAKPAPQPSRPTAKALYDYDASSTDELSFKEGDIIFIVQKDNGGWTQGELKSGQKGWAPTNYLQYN
Assay: Actin-activated steady state ATPase assay (PK/LDH-coupled, photometric)
Format: biochemical
Conditions: in the presence of 30 µM F-actin, nonlinear regression
Protocol: In this assay, the ATPase activity of Dictyostelium discoideum myosin-1b is determined, preferably at a ligand concentration of 25µM. Furthermore, the IC50 concentration has been determined by measuring ATPase activity as a function of inhibitor concentration. Alternatively Dictyostelium discoideum myosin-2 can be used.
Actin-activated steady state ATPase experiments were performed following the absorbance change during NADH oxidation in a PK/LDH-coupled ATPase assay at 340 nm […] (Trentham (1972); Furch (1998)). The photometric steady state ATPase assay was applied to determine the potency of the small molecule compounds to inhibit the enzymatic activity of myosin. Dd myosin-1b was used as a model system for the target protein (Pf myosin A). All experiments were carried out in the presence of 30 µM F-actin and the corresponding half-maximal inhibitory concentrations (IC50) were determined by nonlinear regression.

- IC50: 8.07 ± 0.8 µM
SMILES: COC(=N)Cc1ccc(O)cc1 [BIP13, Methyl-2-(4-hydroxyphenyl)acetimidate·hydrochloride]
